ChEMBL document CHEMBL4699551, “Bromotryptamine and Imidazole Alkaloids with Anti-inflammatory Activity from the Bryozoan Flustra foliacea” (J Nat Prod, 2020)
The source made the active and inactive calls. The rule behind the calls is not given here.

Columns and labels:
[1] = tested on: Dendritic cell; test: Antiinflammatory activity in human monocytes-derived dendritic cells assessed as decrease in IL-12p40 secretion at 10 ug/ml after 24 hrs by ELISA method relative to control; format: functional
[2] = tested on: Dendritic cell; test: Antiinflammatory activity in human monocytes-derived dendritic cells assessed as increase in IL-10 secretion at 10 ug/ml after 24 hrs by ELISA method relative to control; format: functional
[3] = tested on: Dendritic cell; test: Cytotoxicity against human monocytes-derived dendritic cells assessed as reduction in cell viability after 10 ug/ml after 24 hrs by trypan blue staining based assay; conditions: dose 10 µg/ml
[4] = tested on: Dendritic cell; test: Antiinflammatory activity in human monocytes-derived dendritic cells assessed as decrease in IL-12p40 secretion after 24 hrs by ELISA method relative to control; format: functional, cell-based

SMILES | Activity ([1]; dose 10.0 µg/ml) | Activity ([2]; dose 10.0 µg/ml) | Activity ([1]; dose 10 µg/ml) [%] | Activity [3] | also measured
C=CC(C)(C)[C@@]12CCN(C)[C@@H]1N(CC=C(C)C)c1cc(Br)ccc12 | inactive | inactive |  |  | 
CN(C)CCc1c[nH]c2cc(Br)ccc12.O=C(O)C(F)(F)F |  |  | 45 | Non-Toxic | 
C=CC(C)(C)C(=O)Nc1cc(Br)ccc1C(=O)O |  |  | 45 | Non-Toxic | 
C=CC(C)(C)[C@@]12CCN(C)[C@@H]1N(C)c1cc(Br)ccc12 | inactive | inactive |  |  | 
CC(C)=CC[C@@]12CCN(C)[C@@H]1N(CC(O)C(C)(C)O)c1cc(Br)ccc12 (some centres not stated) | inactive | inactive |  |  | 
C=CC(C)(C)[C@@]12CCN(C)[C@@H]1N(C(O)C(O)C(C)(C)O)c1cc(Br)ccc12 (some centres not stated) | inactive | inactive |  |  | 
O=C(O)C(F)(F)F.O=Cc1c[nH]c2cc(Br)ccc12 |  |  | 45 | Non-Toxic | 
C=CC(C)(C)[C@@]12CCN(C)C1=Nc1cc(Br)ccc12 | inactive | inactive |  |  | 
C=CC(C)(C)c1[nH]c2cc(Br)ccc2c1CC[N+]1(C)CCOC1 (configuration not stated) |  |  | 45 | Non-Toxic | 
CC(C)=CC[C@@]12CCN(C)[C@@H]1N(C(O)C(O)C(C)(C)O)c1cc(Br)ccc12 (some centres not stated) | inactive | inactive |  |  | 
C/C(=C\C(=O)NCCc1c[nH]cn1)CCCC(C)(C)O |  |  |  |  | Activity ([2]; dose 10 µg/ml): 19%
CNCC[C@]1(O)C(=O)N(CC=C(C)C)c2cc(Br)ccc21 | inactive | inactive |  |  | 
CC1=C[C@H]2[C@@H]([C@@H](c3[nH]c4cc(Br)ccc4c3CCN(C)C)[C@]34CC[N+](C)(C)[C@]23Nc2cc(Br)ccc24)C(C)(C)C1 (relative stereo) |  |  |  |  | Activity ([2]; dose 10 µg/ml): 19%
C=CC(C)(C)[C@@]12CCN[C@@H]1Nc1cc(Br)ccc12 | inactive | inactive |  |  | 
C=CC(C)(C)[C@@]12CCN(C)[C@@H]1N(C(OC)C(O)C(C)(C)O)c1cc(Br)ccc12 (some centres not stated) | inactive | inactive |  |  | 
CO[C@H](c1[nH]c2cc(Br)ccc2c1CCN(C)C)[C@@H](O)C(C)(C)O |  |  | 45 | Non-Toxic | 
C=CC(C)(C)c1c(CCNC)c2ccc(Br)cc2n1C.O=C(O)C(F)(F)F |  |  | 45 | Non-Toxic | 
CC(C)C(=O)c1c(CCN(C)C)c2ccc(Br)cc2[nH]c1=O |  |  | 45 | Non-Toxic | 
CC(C)=CC[C@@]12CCN(C)[C@@H]1Nc1c(Br)ccc(O)c12 | inactive | inactive |  |  | 
CC(C)=CCN1c2cc(Br)ccc2[C@]2(CC=C(C)C)CCN(C)[C@H]12 | inactive | inactive |  |  | 
CC(C)=CC[C@@]12CCN(C)[C@@H]1Nc1cc(Br)ccc12 | inactive | inactive |  |  | 
C=CC(C)(C)[C@@]1(CCNC)C(=O)Nc2cc(Br)ccc21 | inactive | inactive |  |  | 
CNCCc1cn(CC=C(C)C)c2cc(Br)ccc12.O=C(O)C(F)(F)F |  |  | 45 | Non-Toxic | IC50 [4]: 2.9 µM
C=CC(C)(C)[C@@]12CCN(C)[C@@H]1N(CC(O)C(C)(C)O)c1cc(Br)ccc12 (some centres not stated) | inactive | inactive |  |  | 
